Experimental data reported in patent publication US11771711B2, “Substituted pyridines as DNMT1 inhibitors” (GlaxoSmithKline Intellectual Property Development Limited, priority 2021, dated 2023).

Columns and labels:
[1] = system: global DNA methylation (5-methylcytosine); assay: Global DNA methylation (5-methylcytosine) LC-MS/MS assay in SKM-1 tumor and mouse bone marrow; assay type: in vivo
Description: (§1) SKM-1 cells (3.8×10^6) suspended in 50% Matrigel (BD Biosciences)/50% Dulbecco's phosphate-buffered saline (DPBS) were implanted in 8-11 week old female NOD.CB17-Prkdc1NCrCrl mice. Tumors were measured with digital calipers, and stratified block randomized according to tumor size (P value >0.9085) into treatment groups with average tumor volumes of 219 or 1076 mm^3 for efficacy or PK/PD studies respectively. GSK4172239A was formulated weekly in Sterile water. Mice were measured twice weekly for body weight and tumor size. Dosing started on the day after randomization. Animals were dosed twice daily (BID) via oral gavage (PO) with Example 1 at 22, 67, or 200 mg/kg. A maximal tumor burden of 2,500 mm^3 for two consecutive measurements was not exceeded during the studies. For the PK/PD study, tumor, blood, and bone marrow were collected two hours following the 20th dose (10 days). For PK, blood was mixed 50:50 with water while tumor was homogenized (Omni hand-held homogenizer) in sterile water at a 1:4 dilution. Both samples were precipitated with acetonitrile, and concentrations of Example 4 were determined by HPLC—MS/MS (Waters Acquity uPLC, Sciex API5000). SKM-1 tumor and mouse bone marrow samples were assessed using a global DNA methylation (5-methylcytosine) LC-MS/MS assay. […] An HPLC—MS/MS method was optimized to quantify 2′-deoxycytidine and 5-methyl-2′-deoxycytidine. […] Concentrations of 2′-deoxycytidine and 5-methyl-2′-deoxycytidine were determined using standard curves generated from pure 2′-deoxycytidine (Sigma-Aldrich) and 5-methyl-2′-deoxycytidine (Santa Cruz Biotechnology). […]
(§2) Example 1 was evaluated in immunocompromised mice bearing subcutaneous SKM-1 human AML (acute myeloid leukemia) xenografts. […] In addition, the mechanistic consequence of inhibiting DNMT1, a decrease in DNA methylation, was assessed globally using a LC-MS/MS-based 5-methylcytosine assay. […] In a subsequent study, to examine anti-tumor efficacy, tumor volume was measured (n=10 animals per group) twice weekly for 4 weeks while on treatment.

[2] = system: SKM-1 human AML (acute myeloid leukemia) xenografts; assay: Anti-tumor efficacy in subcutaneous SKM-1 human AML xenografts; assay type: in vivo, mouse
Description: as §1, §2

Full-length human DNMT1 = Full-length human DNMT1 (Homo sapiens (Human), UniProt P26358); assay: DNMT1 Scintillation Proximity Assay (SPA) - Assay A; assay type: biochemical; conditions: footnote a: DNMT1 full length
Description: DNMT1 Scintillation Proximity Assay (SPA)—Assay A (Full-Length Human DNMT1)
This assay used Scintillation Proximity technology in a signal increase format to evaluate the potency of compounds. Full-length human DNMT1, hemi-methylated DNA duplex*, and tritiated SAM were utilized to monitor activity. Assay plate creation consisted of the following parameters: 500 nL of an 11 pt, 3-fold serial dilution of compound was stamped into a 96 well Costar plate (#3884). Assay buffer mix was made on the day of assay consisting of: 20 mM Tris pH 7.5, 1 mM DTT, 1 mM EDTA, and 5% glycerol. A 2× enzyme mix was then prepared consisting of 30 nM DNMT1 protein (full length human DNMT, made in house) in assay buffer. The 2× substrate mix was made last, and consisted of 160 nM 40mer hemi-methylated DNA*, 0.48 μM ^3H-SAM, and 2.92 μM cold SAM in assay buffer (^3H-SAM is added last). The quench (1 mM SAH) was made in bulk and frozen at −20 until the time of use. Ten uL of the 2× substrate mix was added to the entire plate using a multichannel electronic pipette. Plate was shaken for at least 10s between additions to ensure mixing. Next, 20 uL of 2× quench mix was added to column 12 using a multichannel pipette (shake plate). Using a multichannel electronic pipette, 10 uL of 2× enzyme mix was added to the full plate starting with column […] (column 12 last to avoid pre-quench carryover). Plates were incubated on the shaker for 30 minutes with the plate covered. At the end of the incubation period, 20 uL of quench mix were added to all wells except column 12 (shake plate) followed by the addition of 20 uL of 3 mg/mL PerkinElmer PEI PVT SPA Beads (Cat. #RPNQ0097) diluted in DNAse free water and allowed to shake for at least 30 minutes. Plates were sealed with a clear seal and centrifuged at 500 rpm for 1 min. Plates were read on a MicroBeta (Perkin Elmer, read for ^3H (1 min/well).
Microsoft Excel was used to analyze the data up to Vi/Vo and GraFit was used to fit the data. Responses were normalized to the uninhibited (DMSO) and pre-quenched controls within each plate. Dose-response curves were analyzed using a three-parameter logistic fit with Ymin constrained to 0 and results were expressed as IC50 values.
Final assay conditions: 20 mM Tris (Hampton Research—HR-937-06), pH 7.5, 1 mM DTT (Invitrogen—P2325), 1 mM EDTA (Invitrogen—AM9260G), 5% Glycerol (Teknova—G1796), 0.02% Pluronic F127 (Life Technologies—P6866), 15 nM DNMT1 (full length human DNMT1—GSK made in-house), 240 nM ^3H-SAM (PerkinElmer—NET155H001MC), 1460 nM cold SAM (New England Biolabs—B9003S) and 80 nM 40-mer hemi-methylated DNA Oligonucleotide (Integrated DNA Technologies—custom), 1 mM SAH (Sigma A9384), and 1 mg/mL PEI PVT SPA Beads (Perkin Elmer RPNQ0097) resuspended in water.

[3] = Drug exposure in blood and tumor of mice bearing SKM-1 xenografts (PK/PD study); assay type: in vivo, mouse; conditions: 22, 67 or 200 mg/kg BID PO; blood and tumor two hours following the 20th dose
Description: as §1, with “A maximal tumor burden of 2,500 mm^3 for two consecutive measurements was not exceeded during the studies. For the PK/PD study, tumor, blood, and bone marrow were collected two hours following the 20th dose (10 days). For PK, blood was mixed 50:50 with water while tumor was homogenized (Omni hand-held homogenizer) in sterile water at a 1:4 dilution.” left out
Example 1 was evaluated in immunocompromised mice bearing subcutaneous SKM-1 human AML (acute myeloid leukemia) xenografts. […]

physchem = conditions: FaSSIF buffer, pH 6.5, fassif, thermodynamic from solid
Description: Solubility of Solid Compounds in Fasted Simulated Intestinal Fluid
The solubility of solid compounds in Fasted Simulated Intestinal Fluid (FaSSIF) was determined at pH 6.5 after 4 hour equilibration at room temperature (using procedures described in Sou, T.; Bergström, C. A. S. Automated assays for thermodynamic (equilibrium) solubility determination. Drug Discovery Today: Technologies 2018, 27, 11-19). 1 ml of FaSSIF buffer (3 mM Sodium taurocholate, 0.75 mM lecithin in sodium phosphate buffer at pH6.5) was added to manually weighed 1 mg of solid compound in a 4 ml vial. The resulting suspension was shaken at 900 rpm for 4 hours at room temperature and then transferred to a Multiscreen HTS, 96-well solubility filter plate to separate the residual solid and the filtrate. Quantification of the compound concentration in the filtrate was performed by HPLC-UV using single point calibration of a known concentration of the compound in DMSO. […] The dynamic range of the assay was 1-1000 μg/ml.

Full-length human DNMT1, sequence (P26358 whole entry): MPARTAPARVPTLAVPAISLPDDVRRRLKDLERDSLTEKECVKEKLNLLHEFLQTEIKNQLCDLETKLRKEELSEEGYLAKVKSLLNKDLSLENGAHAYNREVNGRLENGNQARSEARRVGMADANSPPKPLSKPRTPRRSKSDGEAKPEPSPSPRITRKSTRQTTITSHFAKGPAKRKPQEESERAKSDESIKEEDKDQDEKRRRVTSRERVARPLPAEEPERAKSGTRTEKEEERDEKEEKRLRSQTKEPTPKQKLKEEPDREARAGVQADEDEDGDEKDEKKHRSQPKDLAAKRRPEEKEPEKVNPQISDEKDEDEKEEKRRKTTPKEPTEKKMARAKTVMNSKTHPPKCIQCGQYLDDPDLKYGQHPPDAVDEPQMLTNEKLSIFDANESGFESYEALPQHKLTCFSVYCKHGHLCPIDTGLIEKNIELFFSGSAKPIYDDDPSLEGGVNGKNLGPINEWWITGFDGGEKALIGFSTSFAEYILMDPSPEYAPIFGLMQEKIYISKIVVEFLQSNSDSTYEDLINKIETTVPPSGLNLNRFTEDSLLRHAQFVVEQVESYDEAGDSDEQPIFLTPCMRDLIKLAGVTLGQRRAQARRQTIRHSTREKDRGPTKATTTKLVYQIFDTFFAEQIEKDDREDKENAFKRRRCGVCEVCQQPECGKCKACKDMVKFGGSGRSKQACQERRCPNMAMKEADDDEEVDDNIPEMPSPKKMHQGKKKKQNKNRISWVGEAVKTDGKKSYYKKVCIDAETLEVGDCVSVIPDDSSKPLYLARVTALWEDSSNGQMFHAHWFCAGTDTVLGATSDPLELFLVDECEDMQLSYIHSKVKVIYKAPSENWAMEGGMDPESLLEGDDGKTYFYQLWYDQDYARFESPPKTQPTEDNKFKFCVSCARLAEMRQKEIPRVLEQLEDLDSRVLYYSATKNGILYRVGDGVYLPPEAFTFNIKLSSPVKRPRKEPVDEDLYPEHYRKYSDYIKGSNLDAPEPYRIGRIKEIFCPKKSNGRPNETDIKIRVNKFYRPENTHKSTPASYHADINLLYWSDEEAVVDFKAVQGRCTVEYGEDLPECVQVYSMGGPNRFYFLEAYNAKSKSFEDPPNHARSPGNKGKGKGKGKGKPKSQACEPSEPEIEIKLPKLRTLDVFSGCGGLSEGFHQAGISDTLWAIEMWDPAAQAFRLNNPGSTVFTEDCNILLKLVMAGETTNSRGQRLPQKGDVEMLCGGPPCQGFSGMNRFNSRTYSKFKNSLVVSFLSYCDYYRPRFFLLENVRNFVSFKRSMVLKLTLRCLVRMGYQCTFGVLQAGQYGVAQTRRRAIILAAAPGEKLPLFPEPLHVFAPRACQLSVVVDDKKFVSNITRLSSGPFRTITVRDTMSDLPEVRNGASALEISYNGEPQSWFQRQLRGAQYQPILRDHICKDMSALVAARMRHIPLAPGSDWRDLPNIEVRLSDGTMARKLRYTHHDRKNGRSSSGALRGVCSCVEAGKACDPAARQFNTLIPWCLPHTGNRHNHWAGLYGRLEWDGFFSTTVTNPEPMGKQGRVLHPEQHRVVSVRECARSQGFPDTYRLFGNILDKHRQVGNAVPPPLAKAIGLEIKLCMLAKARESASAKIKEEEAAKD

IC50 (Full-length human DNMT1): 16.1 µM
solubility at 4 h (physchem): > 1000 µg/mL
Compound: CCc1c(C#N)c(S[C@@H](C(=O)NP(=O)(O)O)c2ccc(OS(C)(=O)=O)cc2)nc(N(C)C)c1C#N [Example 1, (R)-(2-((3,5-dicyano-6-(dimethylamino)-4-ethylpyridin-2-yl)thio)-2-(4-((methylsulfonyl)oxy)phenyl)acetyl)phosphoramidic acid]
global DNA methylation in comparison to vehicle ([1]; 22, 67 or 200 mg/kg BID PO, 10 days): reduced at all doses
maximal change (reduction) in global DNA methylation in the tumor vs vehicle ([1]; SKM-1 tumor, 200 mg/kg BID PO, two hours following the 20th dose (10 days)): 49%
maximal change (reduction) in global DNA methylation in the bone marrow vs vehicle ([1]; mouse bone marrow, 200 mg/kg BID PO, two hours following the 20th dose (10 days)): 47%
tumor growth inhibition ([2]; 22 mg/kg BID PO, vs vehicle at day 22): 35%
tumor response ([2]; 200 mg/kg BID PO, vs vehicle at day 22): marked regression
tumor volume ([2]; 22, 67 or 200 mg/kg BID PO, measured twice weekly for 4 weeks): dose-dependent reduction
drug exposure (measured as the racemic active moiety Example 4) [3]: dose-proportional and roughly equivalent in blood and tumor
